Several values for one entry are separate records, joined by “and”; a condition that tells them apart may be missing. Equal values may be shown once.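 The compound was tested at five concentrations on cells cultured in 96-well plates, with a 48-hour exposure period. GI50: concentration for 50% inhibition of growth. The concentration for full growth arrest is given as TGI.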
Key:
Test in all cases: NCI tumour cell line growth inhibition, 48 h
786-0 renal = tested on: 786-0 renal
A498 renal = tested on: A498 renal
A549 NSCLC = tested on: A549 NSCLC
ACHN renal = tested on: ACHN renal
CAKI-1 renal = tested on: CAKI-1 renal
CCRF-CEM leukemia = tested on: CCRF-CEM leukemia
COLO 205 colon = tested on: COLO 205 colon
DU-145 prostate = tested on: DU-145 prostate
EKVX NSCLC = tested on: EKVX NSCLC
HCC-2998 colon = tested on: HCC-2998 colon
HCT-116 colon = tested on: HCT-116 colon
HCT-15 colon = tested on: HCT-15 colon
HL-60(TB) leukemia = tested on: HL-60(TB) leukemia
HOP-62 NSCLC = tested on: HOP-62 NSCLC
HOP-92 NSCLC = tested on: HOP-92 NSCLC
HS 578T breast = tested on: HS 578T breast
HT29 colon = tested on: HT29 colon
IGROV1 ovarian = tested on: IGROV1 ovarian
K-562 leukemia = tested on: K-562 leukemia
KM12 colon = tested on: KM12 colon
LOX IMVI melanoma = tested on: LOX IMVI melanoma
M14 melanoma = tested on: M14 melanoma
MALME-3M melanoma = tested on: MALME-3M melanoma
MCF7 breast = tested on: MCF7 breast
MDA-MB-231 breast = tested on: MDA-MB-231 breast
MDA-MB-435 = tested on: MDA-MB-435
MDA-N = tested on: MDA-N
MOLT-4 leukemia = tested on: MOLT-4 leukemia
NCI-H226 lung = tested on: NCI-H226 lung
NCI-H23 lung = tested on: NCI-H23 lung
NCI-H460 lung = tested on: NCI-H460 lung
NCI-H522 lung = tested on: NCI-H522 lung
NCI/ADR-RES ovarian = tested on: NCI/ADR-RES ovarian
OVCAR-3 ovarian = tested on: OVCAR-3 ovarian
OVCAR-4 ovarian = tested on: OVCAR-4 ovarian
OVCAR-5 ovarian = tested on: OVCAR-5 ovarian
OVCAR-8 ovarian = tested on: OVCAR-8 ovarian
PC-3 prostate = tested on: PC-3 prostate
RPMI-8226 leukemia = tested on: RPMI-8226 leukemia
RXF 393 renal = tested on: RXF 393 renal
SF-268 CNS = tested on: SF-268 CNS
SF-295 CNS = tested on: SF-295 CNS
SF-539 CNS = tested on: SF-539 CNS
SK-MEL-2 melanoma = tested on: SK-MEL-2 melanoma
SK-MEL-28 melanoma = tested on: SK-MEL-28 melanoma
SK-MEL-5 melanoma = tested on: SK-MEL-5 melanoma
SK-OV-3 ovarian = tested on: SK-OV-3 ovarian
SN12C renal = tested on: SN12C renal
SNB-19 CNS = tested on: SNB-19 CNS
SNB-75 CNS = tested on: SNB-75 CNS
SR leukemia = tested on: SR leukemia
SW-620 colon = tested on: SW-620 colon
T-47D breast = tested on: T-47D breast
TK-10 renal = tested on: TK-10 renal
U251 CNS = tested on: U251 CNS
UACC-257 melanoma = tested on: UACC-257 melanoma
UACC-62 melanoma = tested on: UACC-62 melanoma
UO-31 renal = tested on: UO-31 renal

Compound: COc1ccc2c(c1)n([O-])c1ccccc1[n+]2=O
- GI50 (786-0 renal): 43 µM and 21.4 µM
- TGI (786-0 renal): > 100 µM
- GI50 (A498 renal): 82.6 µM and 18.3 µM
- TGI (A498 renal): > 100 µM and 60.4 µM
- TGI (A549 NSCLC): > 100 µM and 44.7 µM
- GI50 (ACHN renal): 16.3 µM and 5.24 µM
- TGI (ACHN renal): 41.5 µM and 47.3 µM
- GI50 (CAKI-1 renal): 25.3 µM and 8 µM
- TGI (CAKI-1 renal): > 100 µM and 27 µM
- TGI (CCRF-CEM leukemia): > 100 µM
- TGI (COLO 205 colon): > 100 µM and 74.7 µM
- GI50 (DU-145 prostate): 29.3 µM and 12.2 µM
- TGI (DU-145 prostate): > 100 µM
- TGI (EKVX NSCLC): > 100 µM and 55.1 µM
- TGI (HCC-2998 colon): > 100 µM
- TGI (HCT-116 colon): > 100 µM
- TGI (HCT-15 colon): > 100 µM and 37.3 µM
- GI50 (HL-60(TB) leukemia): 45.2 µM and 4.54 µM
- TGI (HL-60(TB) leukemia): > 100 µM
- TGI (HOP-62 NSCLC): > 100 µM
- TGI (HOP-92 NSCLC): > 100 µM
- GI50 (HS 578T breast): > 100 µM and 30.4 µM
- TGI (HS 578T breast): > 100 µM
- TGI (HT29 colon): > 100 µM
- TGI (IGROV1 ovarian): 19.1 µM
- GI50 (K-562 leukemia): 42.6 µM and 15.6 µM
- TGI (K-562 leukemia): > 100 µM
- TGI (KM12 colon): > 100 µM and 46.2 µM
- GI50 (LOX IMVI melanoma): 29.5 µM and 7.2 µM
- TGI (LOX IMVI melanoma): > 100 µM and 31.6 µM
- GI50 (M14 melanoma): 62.1 µM and 7.9 µM
- TGI (M14 melanoma): > 100 µM and 21.7 µM
- TGI (MALME-3M melanoma): > 100 µM and 69.9 µM
- GI50 (MCF7 breast): 20.3 µM and 8.97 µM
- TGI (MCF7 breast): > 100 µM and 36 µM
- TGI (MDA-MB-231 breast): > 100 µM
- GI50 (MDA-MB-435): 65.4 µM and 22.2 µM
- TGI (MDA-MB-435): > 100 µM and 46.4 µM
- TGI (MDA-N): > 100 µM
- TGI (MOLT-4 leukemia): > 100 µM
- TGI (NCI-H226 lung): 91.4 µM and 91.6 µM
- TGI (NCI-H23 lung): > 100 µM and 91.4 µM
- GI50 (NCI-H460 lung): 16.8 µM and 5.54 µM
- TGI (NCI-H460 lung): > 100 µM and 34.3 µM
- TGI (NCI-H522 lung): 53.4 µM and 32.1 µM
- TGI (NCI/ADR-RES ovarian): > 100 µM and 97.9 µM
- TGI (OVCAR-3 ovarian): > 100 µM and 58.7 µM
- TGI (OVCAR-4 ovarian): 77.8 µM
- TGI (OVCAR-5 ovarian): > 100 µM
- TGI (OVCAR-8 ovarian): > 100 µM and 55.7 µM
- GI50 (PC-3 prostate): 91.9 µM and 28.3 µM
- TGI (PC-3 prostate): > 100 µM and 73.1 µM
- TGI (RPMI-8226 leukemia): 97.1 µM and > 100 µM
- GI50 (RXF 393 renal): 25 µM and 10.3 µM
- TGI (RXF 393 renal): 81.2 µM and 34.8 µM
- GI50 (SF-268 CNS): 31.5 µM and 15.2 µM
- TGI (SF-268 CNS): > 100 µM and 53.7 µM
- TGI (SF-295 CNS): > 100 µM and 48.6 µM
- GI50 (SF-539 CNS): 46.5 µM and 17.4 µM
- TGI (SF-539 CNS): > 100 µM and 45.9 µM
- TGI (SK-MEL-2 melanoma): 74.7 µM and 54.5 µM
- TGI (SK-MEL-28 melanoma): > 100 µM
- TGI (SK-MEL-5 melanoma): 98.5 µM and 39.8 µM
- TGI (SK-OV-3 ovarian): 94.8 µM
- TGI (SN12C renal): > 100 µM
- GI50 (SNB-19 CNS): 51.6 µM and 20 µM
- TGI (SNB-19 CNS): > 100 µM and 89.6 µM
- TGI (SNB-75 CNS): > 100 µM
- GI50 (SR leukemia): 7.56 µM and 2.42 µM
- TGI (SR leukemia): 59.6 µM and 12.2 µM
- TGI (SW-620 colon): > 100 µM
- TGI (T-47D breast): > 100 µM and 22.6 µM
- TGI (TK-10 renal): > 100 µM
- TGI (U251 CNS): > 100 µM
- GI50 (UACC-257 melanoma): 46.5 µM and 17.9 µM
- TGI (UACC-257 melanoma): > 100 µM and 40.2 µM
- TGI (UACC-62 melanoma): > 100 µM and 65 µM
- TGI (UO-31 renal): 46 µM and 36.6 µM

— PubChem BioAssay (NCI)
